Results taken from patent US20060183803A1, “L-aspartic acid for the treatment of assorted health problems” (Instituto del Metabolismo Celular, S.L., priority 2005, published 2006).

Columns and labels:
[1] = Patients with high blood uric acid levels under treatment; format: in vivo, human; conditions: sixty patients
Protocol: Sixty patients participating in this program had high blood uric acid levels.
Our treatment achieved a significant decrease in the uric acid levels of these patients: from initial levels of between 7.1 and 9.4 mg/100 mL to, after usually 2-4 months treatment, normal values.

[2] = Tobacco, caffeine and other drug addictions in patients under treatment; format: in vivo, human
Description: For the treatment of tobacco addiction, we found it advisable to increase the frequency of the intake of L-aspartic acid to 10-12 small doses per day in order to control the anxiety to smoke.
In our clinical trials, some of our patients were addicted to some soft drugs like coffee (caffeine), tobacco (nicotine), Prozac (fluoxetin), Trankimazin (alprazolam), Tranxilium (di-potasium chloride-acetate). In general, they were able to reduce their consumption of these materials while undergoing our recommended treatments. […] In tobacco release addiction programs, some small supplementary doses (0.5-1.0 g. every 30-45 minutes) may be necessary during the day to stop the patient's anxiety.
Smoking patients who expressed a desire to stop were advised to prepare a small bottle of water (or even fruit juice) with some small spoonfuls of L-aspartic acid, and to drink some small swigs of this throughout the day to control their anxiety levels.

[3] = Clinical trial of L-aspartic acid plus starch-free diet in obesity and overweight
[4] = Clinical trial in patients suffering from hypertension; format: in vivo, human
Description: Clinical trials for 250 patients suffering from hypertension (156 men and 94 women, with ages between 19 and 70 years) are reported below.
A summary of our clinical results are shown in Table 3 for average daily L-aspartic acid consumptions of 12 g/day (four daily 3 g doses).

[5] = Ketosis in patients under treatment
[6] = Migraines, headaches and menstrual pains reported by patients under treatment; format: in vivo, human; conditions: improvement in first or second month, in some cases several months
[7] = Clinical trial in type-1 and type-2 diabetes patients; format: in vivo, human
Description: There is, in principle, no special protocol for patients suffering from diabetes (both types), which is different from the general one described above. Type-2 diabetes is usually associated with overweight and/or excess of fat in the body, so its protocol should not differ substantially from the general one presented above. With regard to type-I diabetes, since this treatment allows cells to consume less glucose, as it enhances their capacity to consume fat, it can reduce one's insulin dependence.
Diabetic patients were told to take their values of blood glucose regularly (three or four times a day during the first months) until they achieved good blood glucose values. During the treatment, when it was seen that blood glucose levels were decreasing, the patients were instructed to reduce the doses of drugs or insulin, until removing them completely, to avoid hypoglycemia.
Our clinical trails involved a group of 200 patients, […]. The patients were divided into four groups: (i) Type-2 diabetes patients who had been recently diagnosed and were not yet taking any oral drugs or insulin treatments, (ii) Type-2 diabetes patients who had been taking oral drugs (usually sulphonylurea derivatives) for up to several years, (iii) Type-2 diabetes patients who were suffering for many years, and had started their treatment with oral drugs and, after several years, progressed to insulin injections, which were eventually being supplemented with oral drugs, and (iv) Type-1 diabetes patients, all of them under insulin treatment. Most of these patients were also suffering from other related health problems (e.g., overweight or obesity, hypertension, sexual potency problems).
The basic treatment guidelines for these diabetes patients were essentially the same as that which was indicated above for our obesity and overweight patients (i.e., four daily takings of 1-3 grams of L-aspartic acid and the elimination of starches from one's diet).

[8] = Sexual potency problems of male patients under treatment; format: in vivo, human; conditions: after 2-3 months of treatment
Description: A number of the male patients in our trails initially complained of erectile disfunction and other sexual performance problems. […] These improvements were most significant for those patients who had reported problems of erectile disfunction; with these patients generally reporting improvements in all aspects of their sexual activities, including their sexual appetency and ability to ejaculate.

[9] = Digestion problems of patients under treatment; format: in vivo, human; conditions: more than three hundred patients, after two or three weeks
[10] = Clinical trial in non-diabetic patients with blood cholesterol excess; format: in vivo, human; conditions: more than 200 non-diabetic patients, four daily takings of 1-3 grams
Description: These clinical trials included a group of more than 200 non-diabetic patients with blood cholesterol excesses. The basic treatment (i.e., four daily […] of 1-3 grams of L-aspartic acid and the elimination of starches from one's diet) for these patients was the same as that described above, plus: (i) complete elimination of carbohydrates from the diet, (ii) inclusion of unsaturated and polyunsaturated fat in all meals, and (iii) inclusion in some meals of cholesterol.

In the case of `N[C@@H](CC(=O)O)C(=O)O` [L-aspartic acid], the “blood uric acid level after treatment” value ([1]; initial levels between 7.1 and 9.4 mg/100 mL) is reported as “normal values”, the “treatment time to normal uric acid values” ([1]; usually) is reported as 2-4 months and the “daily number of cigarettes smoked” value ([2]; most tobacco-addicted patients interested in ceasing, after 2-4 weeks) is reported as “able to reduce their daily numbers of cigarettes smoked”. The caffeine addiction ([2]; patients consuming 8-12 daily coffees or caffeine soft drinks) was “drastically eliminate this dependence in only a few weeks”, the smoking cessation ([2]; patients wishing to stop, small swigs through the day, after several weeks) was “all of these patients had ceased smoking” and the “safety of prolonged treatment (blood chemical analysis)” value ([3]; duration as long as one wants) was “without danger of intoxication”. For the same compound, the “fat burnt per day” value ([3]; estimated from water unloaded, ratio 14/18) was 200 to 600 g, the “biochemical and hematological parameters in periodic blood analysis” value ([3]; human, in vivo) was “consistently showed improvements” and the “side effect from reduced drinking” value ([3]; in some cases) was “hard stools and difficulty with bowel movements”. The weight loss outcome ([3]; more than 1,500 patients, ages 18 to 83) was “Successful weight losses in all cases”, the “usual weight loss rate” value ([3]; obesity patients, also printed as 11-13 pounds per month) was 5-6 kg per month and the “carbohydrate abstinence syndrome (weakness, feeling sick)” value ([3]; on elimination of carbohydrate-rich foods) was “only during their first two weeks of participation”. For the same compound, the “fat as percentage of body mass after treatment” value ([3]; person (FIG. 5), 41.1% at start, after 290 days) was 23%, the “body fat mass after treatment” value ([3]; person (FIG. 5), 53.5 kg of fat at start, after 290 days) was 19.1 kg and the “body weight after treatment” value ([3]; person (FIG. 5), 130 kg at start, after 290 days of treatment) was 83 kg. The weight reduction ([3]; person (FIG. 5), after 290 days of treatment) was 47 kg, the “change in percentage of body fat” value ([3]; versus conventional hypocaloric diets) was “significant reductions in our patients' percentages of body fat” and the “anxiety, hunger pangs or energy loss during treatment” value ([3]; without sedative or stimulant drug) was “no significant anxiety, hunger pangs or energy loss”. The “reduction in % body fat” value ([4]; 250 hypertension patients, 12 g/day) was “approximately 10%”, the “mean time to attainment of recommended normal blood pressures” value ([4]; 250 patients, 12 g/day (four daily 3 g doses)) was 2.8 months and the “occurrence of ketosis under treatment” value ([5]; all patients under treatment) was “None of the patients under our treatment have suffered any kind of ketosis”. For the same compound, the “blood ketone bodies in patients with signs of ketosis before treatment” value ([5]; relatively short time after beginning treatments) was “achieved normal blood concentration of ketone bodies”, the “number of patients reporting migraines, headaches and menstrual pains” value [6] was “significant reduction” and the “reduction of oral drugs and/or insulin injections” value ([7]; all diabetes patients) was “able to reduce to some degree their oral drugs and/or insulin injections”. For the same compound, the “glycosylated haemoglobin, cholesterol, tryglycerides and total lipids in blood analysis” value ([7]; diabetes patients) was “drastically reduced”, the “reduction in glycosylated haemoglobin levels” value ([7]; diabetes patients, over the duration of treatment) was no less than 20% and the “time to change from insulin injections to oral diabetes drugs” value ([7]; most type-2 patients receiving insulin injections) was 1-2 months. For the same compound, the “reduction in glycosylated haemoglobin level, single patient” value ([7]; patient Example 32 in Table 2) was 38.05%, the “onset of improvement in glycemia levels” value ([7]; two type-2 patients (FIGS. 6 and 7)) was “clear from the first week of treatment” and the “time to good control of glycemia and discontinuing diabetes medications” value ([7]; two type-2 patients (FIGS. 6 and 7), diabetes for over 10 years) was 1-2 months. For the same compound, the “reduction in insulin dosages” value ([7]; type-1 diabetes patients, over periods of 3-12 months) was 20-30%, the “erectile disfunction and other sexual performance problems” value [8] was “significant diminishments of their problems” and the digestion problems [9] was “almost total resolution of their digestion problems”. For the same compound, the “blood cholesterol, tryglycerides and total lipid levels” value [10] was “clear improvement”.
